Results taken from US11000033B2, “Ketone or oxime compound, and herbicide” (NISSAN CHEMICAL CORPORATION, priority 2014, dated 2021).

Legend:
Format in all cases: in vivo
Avena fatua = test: Test Example 4: herbicidal effect by soil treatment (symbol I)
In short: (§1)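 Seeds were sown in sterilized diluvial soil, covered with about 1.5 cm of soil, and the soil surface was sprayed with a water-diluted emulsion of the compound at a predetermined rate. Plants grew in a greenhouse at 25° C. to 30° C.; effects were scored visually 3 weeks after application.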

[1] = system: Echinochloa oryzacola Vasing.; test: Test Example 2: herbicidal activity, application during weed generation in submerged conditions (symbol A); conditions: Table 23; application herbicide amount 320 g/ha; grade 0-5 by criteria of Test Example 1
In short: (§2)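 Alluvial soil in pots was flooded to a 4 cm water depth and sown with a mix of the three weed species, then grown in a greenhouse at 25° C. to 30° C. At the one- to two-leaf stage, an emulsifiable formulation diluted in water to a set dose was applied to the water surface. Effects were scored visually 3 weeks later.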

rice plant = test: Test Example 5: effect on crop by foliage application, plastic box (symbol b); conditions: 320 g/ha, 3 weeks after application
In short: (§3)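 Seeds were sown in spots in sterilized diluvial soil held in a plastic box 21 cm × 13 cm × 7 cm deep, covered with about 1.5 cm of soil, and grown in a greenhouse at 25° C. to 30° C.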

Digitaria ciliaris = test: Test Example 4: herbicidal effect by soil treatment (symbol F)
In short: as §1

Scirpus juncoides = test: Test Example 2: herbicidal activity, application during weed generation in submerged conditions (symbol B); conditions: Table 23; application herbicide amount 320 g/ha; grade 0-5 by criteria of Test Example 1
In short: as §2

Chenopodium album = test: Test Example 4: herbicidal effect by soil treatment (symbol O)
In short: as §1

Galium spurium = test: Test Example 4: herbicidal effect by soil treatment (symbol Q)
In short: as §1

Abutilon theophrasti = test: Test Example 4: herbicidal effect by soil treatment (symbol M)
In short: as §1

corn [2] = test: Test Example 4: effect on crop by soil treatment (symbol c); conditions: for c: corn, effect grade on crop: 320 g/ha; for c: corn, effect on crop grade: application herbicide amount 320 g/ha
In short: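 Grown at 25° C. to 30° C. in a greenhouse, the crops came from seed sown spot-wise in sterilized diluvial soil under roughly 1.5 cm of covering soil.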

Monochoria vaginalis [3] = test: Test Example 2: herbicidal activity, application during weed generation in submerged conditions (symbol C); conditions: Table 23; application herbicide amount 320 g/ha; grade 0-5 by criteria of Test Example 1
In short: as §2

soybean = test: Test Example 5: effect on crop by foliage application, plastic box (symbol d); conditions: 320 g/ha, 3 weeks after application
In short: as §3

Monochoria vaginalis [4] = test: Test Example 1: herbicidal activity, application before weed generation in submerged conditions (symbol C); conditions: application herbicide amount 320 g/ha
In short: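 Flooded alluvial soil (4 cm water) was mixed-sown with the three weed species, and 2.5-leaf rice seedlings were transplanted. On sowing day, a water-diluted emulsion at a predetermined rate was applied to the water surface. After 3 weeks in a 25–30 °C greenhouse, effect was scored 0–5.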

Apera spica-venti = test: Test Example 4: herbicidal effect by soil treatment (symbol L)
In short: as §1

[5] = system: Echinochloa crus-galli var. crus-galli; test: Test Example 4: herbicidal effect by soil treatment (symbol H)
In short: as §1

Lolium multiflorum Lam. = test: Test Example 5: herbicidal effect by foliage application, plastic box (symbol K); conditions: 320 g/ha, 3 weeks after application
In short: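 Effect is rated 3 weeks after a foliar spray of water-diluted emulsion concentrate at a predetermined herbicide amount. Plants had grown 14 days in a 25° C. to 30° C. greenhouse from seed in sterilized diluvial soil.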

corn [6] = test: Test Example 5: effect on crop by foliage application, plastic box (symbol c); conditions: 320 g/ha, 3 weeks after application
In short: as §3

rapeseed = test: Test Example 4: effect on crop by soil treatment (symbol g); conditions: for g: rapeseed, effect grade on crop: 320 g/ha
In short: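 Crop seeds, among them rice, wheat, beet and rapeseed, were sown in sterilized diluvial soil and covered with about 1.5 cm of soil. Boxes were kept in a greenhouse at 25° C. to 30° C. for plant growth.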

[7] = application herbicide amount 320 g/ha

SMILES	I: Avena fatua, herbicidal effect grade (Avena fatua; 320 g/ha)	Herbicidal effect grade, A: Echinochloa oryzacola Vasing. [1]	b: directly sowed rice plant, effect on crop (criteria 0-5) (rice plant)	F: Digitaria ciliaris, herbicidal effect grade (Digitaria ciliaris; 320 g/ha)	Herbicidal effect grade, B: Scirpus juncoides (Scirpus juncoides)	O: Chenopodium album, herbicidal effect grade (Chenopodium album; 320 g/ha)	Q: Galium spurium, herbicidal effect grade (Galium spurium; 320 g/ha)	M: Abutilon theophrasti, herbicidal effect grade (Abutilon theophrasti; 320 g/ha)	c: corn, effect grade on crop (corn [2])	Herbicidal effect grade, C: Monochoria vaginalis (Monochoria vaginalis [3])	d: soybean, effect on crop (criteria 0-5) (soybean)	Herbicidal effect grade, C: Monochoria vaginalis (Monochoria vaginalis [4])	L: Apera spica-venti, herbicidal effect grade (Apera spica-venti; 320 g/ha)	H: Echinochloa crus-galli var. crus-galli, herbicidal effect grade ([5]; 320 g/ha)	K: Lolium multiflorum Lam., herbicidal effect (criteria 0-5) (Lolium multiflorum Lam.)	c: corn, effect on crop (criteria 0-5) (corn [6])	g: rapeseed, effect grade on crop (rapeseed)	I: Avena fatua, herbicidal effect grade (Avena fatua; [7])	b: directly sowed rice plant, effect on crop grade (rice plant)	F: Digitaria ciliaris, herbicidal effect grade (Digitaria ciliaris; [7])	further results
CON=C(C)CC1CC(OC(=O)OCc2ccccc2)=C(c2c(C)cc(C)cc2C)C1=O (stereo not drawn) [1-145]	4 (Herbicidal ratio of 70% or higher and lower than 90%)	5 (Herbicidal ratio of 90% or more (almost completely withered))	5 (Herbicidal ratio of 90% or more (almost completely withered))	5 (Herbicidal ratio of 90% or more (almost completely withered))	5 (Herbicidal ratio of 90% or more (almost completely withered))	0 (Herbicidal ratio of 5% or lower (almost no effect))	0 (Herbicidal ratio of 5% or lower (almost no effect))	4 (Herbicidal ratio of 70% or higher and lower than 90%)	5 (Herbicidal ratio of 90% or more (almost completely withered))	3 (Herbicidal ratio of 40% or higher and lower than 70%)	2 (Herbicidal ratio of 20% or higher and lower than 40%)	1 (Herbicidal ratio of 5% or higher and lower than 20%)	5 (Herbicidal ratio of 90% or more (almost completely withered))	5 (Herbicidal ratio of 90% or more (almost completely withered))	5 (Herbicidal ratio of 90% or more (almost completely withered))	5 (Herbicidal ratio of 90% or more (almost completely withered))	4 (Herbicidal ratio of 70% or higher and lower than 90%)	–	–	–	–
CON=C(C)CC1CC(OC(=O)C(C)(C)c2ccc(Cl)cc2)=C(c2c(C)cc(C)cc2C)C1=O (stereo not drawn) [1-148]	0 (Herbicidal ratio of 5% or lower (almost no effect))	5 (Herbicidal ratio of 90% or more (almost completely withered))	5 (Herbicidal ratio of 90% or more (almost completely withered))	5 (Herbicidal ratio of 90% or more (almost completely withered))	4 (Herbicidal ratio of 70% or higher and lower than 90%)	0 (Herbicidal ratio of 5% or lower (almost no effect))	0 (Herbicidal ratio of 5% or lower (almost no effect))	5 (Herbicidal ratio of 90% or more (almost completely withered))	3 (Herbicidal ratio of 40% or higher and lower than 70%)	4 (Herbicidal ratio of 70% or higher and lower than 90%)	3 (Herbicidal ratio of 40% or higher and lower than 70%)	3 (Herbicidal ratio of 40% or higher and lower than 70%)	5 (Herbicidal ratio of 90% or more (almost completely withered))	5 (Herbicidal ratio of 90% or more (almost completely withered))	5 (Herbicidal ratio of 90% or more (almost completely withered))	4 (Herbicidal ratio of 70% or higher and lower than 90%)	4 (Herbicidal ratio of 70% or higher and lower than 90%)	–	–	–	–
CON=C(C)CC1CC(OC(=O)c2ccccc2C(F)(F)F)=C(c2c(C)cc(C)cc2C)C1=O (stereo not drawn) [1-154]	0 (Herbicidal ratio of 5% or lower (almost no effect))	5 (Herbicidal ratio of 90% or more (almost completely withered))	5 (Herbicidal ratio of 90% or more (almost completely withered))	5 (Herbicidal ratio of 90% or more (almost completely withered))	4 (Herbicidal ratio of 70% or higher and lower than 90%)	0 (Herbicidal ratio of 5% or lower (almost no effect))	0 (Herbicidal ratio of 5% or lower (almost no effect))	4 (Herbicidal ratio of 70% or higher and lower than 90%)	0 (Herbicidal ratio of 5% or lower (almost no effect))	4 (Herbicidal ratio of 70% or higher and lower than 90%)	3 (Herbicidal ratio of 40% or higher and lower than 70%)	2 (Herbicidal ratio of 20% or higher and lower than 40%)	5 (Herbicidal ratio of 90% or more (almost completely withered))	5 (Herbicidal ratio of 90% or more (almost completely withered))	5 (Herbicidal ratio of 90% or more (almost completely withered))	3 (Herbicidal ratio of 40% or higher and lower than 70%)	4 (Herbicidal ratio of 70% or higher and lower than 90%)	–	–	–	–
CON=C(C)CC1CC(O)=C(c2c(C)cc(C(C)=O)cc2C)C1=O (stereo not drawn) [6-026]	–	–	–	–	–	–	–	–	–	–	–	0 (Herbicidal ratio of 5% or lower (almost no effect))	–	–	–	–	–	0 (Herbicidal ratio of 5% or lower (almost no effect))	5 (Herbicidal ratio of 90% or more (almost completely withered))	4 (Herbicidal ratio of 70% or higher and lower than 90%)	O: Chenopodium album, herbicidal effect grade (Chenopodium album; [7]): 0 (Herbicidal ratio of 5% or lower (almost no effect)); Q: Galium spurium, herbicidal effect grade (Galium spurium; [7]): 0 (Herbicidal ratio of 5% or lower (almost no effect)); M: Abutilon theophrasti, herbicidal effect grade (Abutilon theophrasti; [7]): 0 (Herbicidal ratio of 5% or lower (almost no effect)); c: corn, effect on crop grade (corn [2]): 0 (Herbicidal ratio of 5% or lower (almost no effect)); d: soybean, effect on crop grade (soybean): 0 (Herbicidal ratio of 5% or lower (almost no effect)); L: Apera spica-venti, herbicidal effect grade (Apera spica-venti; [7]): 0 (Herbicidal ratio of 5% or lower (almost no effect)); H: Echinochloa crus-galli var. crus-galli, herbicidal effect grade [5, 7]: 1 (Herbicidal ratio of 5% or higher and lower than 20%); K: Lolium multiflorum Lam., herbicidal effect grade (Lolium multiflorum Lam.): 5 (Herbicidal ratio of 90% or more (almost completely withered)); c: corn, effect on crop grade (corn [6]): 5 (Herbicidal ratio of 90% or more (almost completely withered)); g: rapeseed, effect on crop grade (rapeseed; [7]): 0 (Herbicidal ratio of 5% or lower (almost no effect))
CCc1cc(C)cc(C)c1C1=C(O)CC(CC(C)=NOC)C1=O (stereo not drawn) [6-007]	–	5 (Herbicidal ratio of 90% or more (almost completely withered))	–	–	3 (Herbicidal ratio of 40% or higher and lower than 70%)	–	–	–	–	2 (Herbicidal ratio of 20% or higher and lower than 40%)	–	1 (Herbicidal ratio of 5% or higher and lower than 20%)	–	–	–	–	–	4 (Herbicidal ratio of 70% or higher and lower than 90%)	5 (Herbicidal ratio of 90% or more (almost completely withered))	5 (Herbicidal ratio of 90% or more (almost completely withered))	O: Chenopodium album, herbicidal effect grade (Chenopodium album; [7]): 0 (Herbicidal ratio of 5% or lower (almost no effect)); Q: Galium spurium, herbicidal effect grade (Galium spurium; [7]): 0 (Herbicidal ratio of 5% or lower (almost no effect)); M: Abutilon theophrasti, herbicidal effect grade (Abutilon theophrasti; [7]): 4 (Herbicidal ratio of 70% or higher and lower than 90%); c: corn, effect on crop grade (corn [2]): 5 (Herbicidal ratio of 90% or more (almost completely withered)); d: soybean, effect on crop grade (soybean): 2 (Herbicidal ratio of 20% or higher and lower than 40%); L: Apera spica-venti, herbicidal effect grade (Apera spica-venti; [7]): 5 (Herbicidal ratio of 90% or more (almost completely withered)); H: Echinochloa crus-galli var. crus-galli, herbicidal effect grade [5, 7]: 5 (Herbicidal ratio of 90% or more (almost completely withered)); K: Lolium multiflorum Lam., herbicidal effect grade (Lolium multiflorum Lam.): 5 (Herbicidal ratio of 90% or more (almost completely withered)); c: corn, effect on crop grade (corn [6]): 5 (Herbicidal ratio of 90% or more (almost completely withered))
